Patent publication US11426406B2, “Compositions and methods for treating lysosomal storage disorders” (GEORGETOWN UNIVERSITY, priority 2017, dated 2022)

Columns and labels:
Assay type in all cases: in vivo
[1] = tested on: male Sgsh transgenic mice (MPS); test: Open-field anxiety test in MPS mice (Sanfilippo A model); conditions: daily I.P. 21 days, nilotinib 10 mg/kg, bosutinib 5 mg/kg, 5 minute trial, FIG. 2C
Procedure: Open-field Anxiety: Mice were placed in the open field arena for 5 minutes. Animals were tracked by photocell beams along the arena floor. Data were collected and analyzed for the number of entries into the center zone of the arena, the total distance (cm) traveled within the center zone, the amount of time (sec) spent in the center zone, the total distance traveled (cm) in the peripheral wall zone of the arena, the amount of time spent (sec) in the wall zone, the total distance traveled (cm) during the 5 minute trial, the total time spent moving ‘total ambulatory time’ (sec) during the 5 minute trial, and the average velocity (cm/sec) during the 5 minute trial.

[2] = tested on: male Sgsh transgenic mice (MPS); test: Post-treatment rotarod test in MPS mice (Sanfilippo A model); conditions: daily I.P. 21 days, nilotinib 10 mg/kg, bosutinib 5 mg/kg, vs DMSO and non-TG controls, FIG. 3
Procedure: (§1) Twelve 8-9 month old, male Sgsh transgenic mice (MPS) were used for all experiments and were compared to fourteen non-transgenic age-matched, littermates (non-TG). […] Treatment lasted for 21 days. At the end of the treatment period the mice underwent behavioral testing again and Western blot analysis was performed.
Rotarod: Mice were placed on the rotarod apparatus which sped up to 50 rpm, over the course of 5 minutes for 3-5 trials, with a minimum of 30 minutes rest between trials. Data collected were the time the animal remained ambulatory on the rotating rod, in seconds, labelled “latency to fall.” Data is also presented as “percentage difference” where all groups are normalized to the non-transgenic, untreated group, assuming non-transgenic, untreated animals are preforming at 100%.
(§2) Post-treatment rotarod MPS versus non-TG littermate mice: After the behavioral tests were conducted the symptomatic MPS mice were divided into three groups (n=4). […] There were three control groups made of age matched non-TG littermate controls (n=4, 5) which were treated in the same way. Behavioral tests were repeated and data collected is referred to as “post-treatment.” Since there was no significant difference between the control non-TG treatment groups, they were combined into one non-TG control group.

[3] = tested on: male Sgsh transgenic mice (MPS); test: Open-field locomotion test in MPS mice (Sanfilippo A model); conditions: daily I.P. 21 days, nilotinib 10 mg/kg, bosutinib 5 mg/kg, FIG. 2C
Procedure: as §1
Open-field Locomotion: Mice were placed in the open field arena for 60 minutes. Animals were tracked by photocell beams along the arena floor. Data were collected and analyzed for total locomotion via total cm travelled. Other data collected were the total time spent moving ‘total ambulatory time’ (sec) during the 60 minute trial and the average velocity (cm/sec) during the 60 minute trial.
as §2

Structure (SMILES): Cc1cn(-c2cc(NC(=O)c3ccc(C)c(Nc4nccc(-c5cccnc5)n4)c3)cc(C(F)(F)F)c2)cn1 [nilotinib]
- anxiety (entries into center zone), open field [1]: reduced anxiety (more entries into center zone, p<0.05)
- rotarod performance (latency to fall), post-treatment [2]: perform better than the MPS mice treated with DMSO or bosutinib, and look more like the non-TG controls
- overall locomotion activity, open field [3]: increased the overall locomotion (p<0.05) activity
